Key:
[1] = test system: human breast cancer cell strain MDA-MB435 xenograft; assay: Human cancer xenograft tumor model in nude mouse; format: in vivo, BALB/C nude mice; conditions: MDA-MB-435 model, 21 d, intraperitoneal once a day, T/C < 60% = effective
Description: (§1) 5-6 week old female or male BALB/C nude mice, about 18-20 g in weight, were raised. Human cancer xenograft tumor model in nude mouse was established by the following steps: human colon cancer cell strains HCT-116 and Colo205, human breast cancer cell strain MDA-MB435, human prostate cancer cell strain BXPC-3, human ovarian cancer cell strain SKOV-3, human lung cancer cell strain A549, human pancreatic cancer cell strain PANC-1, and human uterine cancer cell strain Hela were all obtained from ATCC. Each cell strain was cultured, and monolayer of cultured tumor cells were digested off the walls, collected and resuspended in serum-free culture medium, and adjusted to a concentration of 2×10^6/0.2 mL, which was then brought to the animal room in an ice box. 0.2 mL cell suspension was drawn directly by a syringe with […] and subcutaneously transplanted into the scapula part of the rear part of nude mouse's left armpit, 2×10^6/0.2 mL for each mouse, and the tumor volume was measured every 2-3 days. After two weeks, tumor was removed under sterile conditions from tumor-bearing nude mice with vigorous tumor growth and without diabrosis. The tumor tissue was cut into pieces of about 2˜3 mm and inoculated subcutaneously into the scapula part of the rear part of nude mouse's left armpit. After three passages, when the tumor volume reached 100 mm^3, the nude mice with too large or too small tumors were eliminated and the rest were randomly divided into groups for the administration.
(§2) The mice were randomly divided into 5 groups, including negative control group (solvent), positive control group (BSI-201, 80 mg/kg), and three treatment groups with high, middle and low doses (40 mg/kg, 30 mg/kg, and 20 mg/kg respectively, wherein the high dose was below the MTD), and there were 8 nude mice in each group except that there are 16 ones in the negative control group. They were administered by intraperitoneal injection once a day for 3 consecutive weeks, during which body weight and tumor volume of the animals were detected and the death number of animals was recorded every 2 days. The animals were sacrificed 24 hours after the last administration, and the volume sizes of tumor, tumor weight, and body weight of nude mice were measured; growth curves of tumor volume, growth curves of body weight of nude mice and tumor inhibition rate, animal mortality were plotted, and relative tumor proliferation rate T/C (%) was calculated according to the equation T/C (%)=TRTV/CRTV*100%. (TRTV: RTV of the treatment group; CRTV: RTV of the negative control group, relative tumor volume RTV=Vt/V0, wherein V0 is the tumor volume when the mice were divided into groups for administration, Vt is the tumor volume after the administration).

[2] = test system: human colon cancer cell strain Colo205 xenograft; assay: Human cancer xenograft tumor model in nude mouse; format: in vivo, BALB/C nude mice; conditions: Colo-205 model, 21 d, intraperitoneal once a day, T/C < 60% = effective
Description: as §1, §2

[3] = test system: human colon cancer cell strain HCT-116 xenograft; assay: Human cancer xenograft tumor model in nude mouse; format: in vivo, BALB/C nude mice; conditions: HCT-116 model, 21 d, intraperitoneal once a day, T/C < 60% = effective
Description: as §1, §2

[4] = test system: human lung cancer cell strain A549 xenograft; assay: Human cancer xenograft tumor model in nude mouse; format: in vivo, BALB/C nude mice; conditions: 21 d, intraperitoneal once a day, T/C < 60% = effective
Description: as §1, §2

[5] = test system: human ovarian cancer cell strain SKOV-3 xenograft; assay: Human cancer xenograft tumor model in nude mouse; format: in vivo, BALB/C nude mice; conditions: SKOV-3 model, 21 d, intraperitoneal once a day, T/C < 60% = effective
Description: as §1, §2

[6] = test system: human pancreatic cancer cell strain PANC-1 xenograft; assay: Human cancer xenograft tumor model in nude mouse; format: in vivo, BALB/C nude mice; conditions: PANC-1 model, 21 d, intraperitoneal once a day, T/C < 60% = effective
Description: as §1, §2

[7] = test system: human prostate cancer cell strain BXPC-3 xenograft; assay: Human cancer xenograft tumor model in nude mouse; format: in vivo, BALB/C nude mice; conditions: BXPC-3 model, 22 d, intraperitoneal once a day, T/C < 60% = effective
Description: as §1, §2

[8] = test system: human uterine cancer cell strain Hela xenograft; assay: Human cancer xenograft tumor model in nude mouse; format: in vivo, BALB/C nude mice; conditions: 21 d, intraperitoneal once a day, T/C < 60% = effective
Description: as §1, §2

[9] = test system: human cancer xenograft tumor models; assay: In vivo efficacy screening, summary over the xenograft models; parameters: species or system BALB/C nude mice; conditions: 30 mg/kg I-1 against 80 mg/kg BSI-201, nude mouse xenografts
Description: 5-6 week old female or male BALB/C nude mice, about 18-20 g in weight, were raised. Human cancer xenograft tumor model in nude mouse was established by the following steps: human colon cancer cell strains HCT-116 and Colo205, human breast cancer cell strain MDA-MB435, human prostate cancer cell strain BXPC-3, human ovarian cancer cell strain SKOV-3, human lung cancer cell strain A549, human pancreatic cancer cell strain PANC-1, and human uterine cancer cell strain Hela were all obtained from ATCC. […] 0.2 mL cell suspension was drawn directly by a syringe with […] and subcutaneously transplanted into the scapula part of the rear part of nude mouse's left armpit, 2×10^6/0.2 mL for each mouse, and the tumor volume was measured every 2-3 days. […]
The mice were randomly divided into 5 groups, including negative control group (solvent), positive control group (BSI-201, 80 mg/kg), and three treatment groups with high, middle and low doses (40 mg/kg, 30 mg/kg, and 20 mg/kg respectively, wherein the high dose was below the MTD), and there were 8 nude mice in each group except that there are 16 ones in the negative control group. They were administered by intraperitoneal injection once a day for 3 consecutive weeks, during which body weight and tumor volume of the animals were detected and the death number of animals was recorded every 2 days. […]

Compound	Relative tumor proliferation rate T/C (%) ([1]; 80 mg/kg)	Relative tumor proliferation rate T/C (%) ([2]; 80 mg/kg)	Relative tumor proliferation rate T/C (%) ([3]; 80 mg/kg)	Relative tumor proliferation rate T/C (%) ([4]; 80 mg/kg)	Relative tumor proliferation rate T/C (%) ([5]; 80 mg/kg)	Relative tumor proliferation rate T/C (%) ([6]; 80 mg/kg)	Relative tumor proliferation rate T/C (%) ([7]; 80 mg/kg)	Relative tumor proliferation rate T/C (%) ([8]; 80 mg/kg)	Relative tumor proliferation rate T/C (%) ([1]; 30 mg/kg)	Relative tumor proliferation rate T/C (%) ([2]; 30 mg/kg)	Relative tumor proliferation rate T/C (%) ([3]; 30 mg/kg)	Relative tumor proliferation rate T/C (%) ([4]; 30 mg/kg)	Relative tumor proliferation rate T/C (%) ([5]; 30 mg/kg)	Relative tumor proliferation rate T/C (%) ([6]; 30 mg/kg)	Relative tumor proliferation rate T/C (%) ([7]; 30 mg/kg)	Relative tumor proliferation rate T/C (%) ([8]; 30 mg/kg)	in vivo efficacy compared with BSI-201 (in words) [9]
NC(=O)c1ccc(I)c([N+](=O)[O-])c1 [BSI-201, 4-iodo-3-nitrobenzamide, reference compound]	44%(80, 21)	50%(80, 21)	54%(80, 21)	42%(80, 21)	41%(80, 21)	45%(80, 21)	48%(80, 22)	48%(80, 21)									
C#Cc1ccc(C(N)=O)cc1[N+](=O)[O-] [Compound I-1, 4-ethynyl-3-nitrobenzamide]									40%(30, 21)	42%(30, 21)	52%(30, 21)	40%(30, 21)	45%(30, 21)	40%(30, 21)	43%(30, 22)	50%(30, 21)	equivalent efficacy to that of 80 mg/kg BSI-201

— patent US8946478B2, “Benzamide derivative with anticancer activity and preparation method and use thereof” (Zhejiang Hisun Pharmaceutical Co., Ltd., priority 2010, dated 2015)
